In patent US20150073033A1, “BIOMARKERS FOR CANCER CHARACTERIZATION AND TREATMENT” (Board of Regents, The University of Texas System, priority 2011, published 2015):

Legend:
Format in all cases: cell-based, human
PKM2 expression = experiment: EGF-induced PKM2 upregulation, immunoblotting; conditions: U87/EGFR cells; pretreatment before EGF 100 ng/mL 12 h; AG1478 1 μM, cycloheximide 200 μg/mL, Bis-I 2 μM, Go6976 2 μM, NF-κB activation inhibitor II 7 μM, AKT inhibitor 10 μM, TBB 50 μM, U73122 2 μM
Method: FIG. 56: EGFR activation results in upregulation of PKM2 expression. A-D: Immunoblotting analyses were performed with or without the indicated antibodies. A: The indicated cell lines were treated with EGF (100 ng/mL) for 12 h. B: U87 cells were stably transfected with plasmids expressing EGFR or EGFRvIII. […] D: U87/EGFR cells were pretreated with or without cycloheximide (CHX) (200 μg/mL) for 30 min before EGF (100 ng/mL) treatment for 12 h. […] The relative mRNA levels of PKM2 and PKM1 were normalized to the levels of untreated cells and β-actin mRNA. Data represent the mean±SD of three independent experiments.
FIG. 57: EGF increases PKM2 expression in a PKC- and NF-κB-dependent manner. A-D, H: Immunoblotting analyses were performed with the indicated antibodies. […] ChIP assay was performed with an anti-RelA antibody for immunoprecipitation, followed by PCR with PKM promoter-specific primers. F: An oligonucleotide containing the putative WT or mutated NF-κB binding sequence was labeled using [γ-^32P] ATP and T4 polynucleotide kinase. […] Samples were subjected to 5% polyacrylamide gel electrophoresis, and the dried gel was exposed to x-ray film. […] The relative levels of luciferase activity were normalized to the levels of untreated cells and to the levels of luciferase activity of the Renilla control plasmid. Data represent the mean±standard deviation of three independent experiments.
(§1) FIG. 58: PKCε downstream from PLCγ1, rather than TAK1, activates IKKβ and subsequently increases PKM2 expression. […] B: U87/EGFR cells were treated with TNFα (10 ng/mL) for the indicated time. C: U87/EGFR cells were treated with or without EGF (100 ng/mL) or TNFα (10 ng/mL) for 4 h. […] HIF1α was immunodepleted from the cell lysates by incubation with an anti-HIF1α antibody, which was followed by a ChIP assay with an anti-FLAG antibody for immunoprecipitation of FLAG-RelA and PCR analysis with PKM promoter-specific primers. […] F: 293T cells were transiently transfected with constitutively active (+) or kinase-dead (−) PKC mutants. […] H, I: 293T cells were transiently transfected with the indicated plasmids.

NF-κB = experiment: TNFα-induced, NF-κB-dependent IκBα promoter luciferase reporter; conditions: U87/EGFR cells; NF-κB activation inhibitor II 7 μM 30 min before TNFα 10 ng/mL 8 h
Method: FIG. 63: PKC, NF-κB, PI3-K, and CK2 are inhibited by their inhibitors. A, B: U87/EGFR cells were treated with Bis-I (2 μM) (A) or Go6976 (2 μM) (B) for 30 min before 12-O-tetradecanoylphorbol-13-acetate (TPA) ([…]) for 8 h. Immunoblotting analyses were performed with the indicated antibodies. C: U87/EGFR cells transiently expressing a luciferase reporter vector containing the IκBα promoter were pretreated with or without NF-κB activation inhibitor II (7 μM) for 30 min before TNFα (10 ng/mL) for 8 h. The relative levels of luciferase activity were normalized to the levels of untreated cells and to the levels of luciferase activity of the Renilla control plasmid. Data represent the mean±standard deviation of three independent experiments. […] Immunoblotting analyses were performed with the indicated antibodies.
The luciferase reporter vector pGL3-promoter containing either the WT or a mutated PKM promoter fragment or a luciferase reporter vector containing the IκBα promoter was transfected into U87/EGFR cells, RelA+/+, or RelA−/− fibroblasts seeded in 24-well plates at 1.5×10^4 cells/well. Twelve hours after transfection, the medium was replaced with 0.1% serum for another 12-24 h, and EGF (100 ng/mL) was added 12 h before harvesting. […] cell extract were used for measuring luciferase activity. […]

PTBP1 = PTBP1 protein expression upon EGF stimulation; conditions: U251 cells; NF-κB activation inhibitor II 7 μM 30 min before EGF 100 ng/mL 8 h
Method: FIG. 64: EGF increases PKM2 expression in a RelA- and PTBP1-dependent manner. […] Data represent the mean±standard deviation of three independent experiments. […] Immunoblotting analyses were performed with the indicated antibodies. C: RelA deficiency inhibits EGF-increased mRNA levels of PKM2, but not of PKM1. mRNA expression levels of PKM2 and PKM1 in RelA^+/+ and RelA^−/− fibroblasts treated with or without EGF (100 ng/mL) for 8 h were measured by real-time quantitative RT-PCR analysis. β-actin mRNA from the same cDNA library was amplified as a control. The relative mRNA levels of PKM2 (left panel) and PKM1 (right panel) were normalized to the levels of untreated cells and β-actin mRNA. Data represent the mean±SD of three independent experiments. D: PTBP1 depletion blocked EGF-induced PKM2 mRNA expression. […] The relative mRNA levels of PKM2 and PKM1 were normalized to the levels of untreated cells and β-actin mRNA. Data represent the mean±SD of three independent experiments. […] U87/EGFR cells transiently expressing a luciferase reporter vector containing the IκBα promoter were treated with or without TNFα (10 ng/mL) or EGF (100 ng/mL) for 8 h. The relative levels of luciferase activity were normalized to the levels of untreated cells and to the levels of luciferase activity of the Renilla control plasmid. Data represent the mean±standard deviation of three independent experiments.

IKKβ = experiment: EGF-induced IKKβ activation, immunoblotting; conditions: U87/EGFR cells; U73122 2 μM 30 min before EGF 100 ng/mL 12 h
Method: as §1

SMILES	EGF-induced PKM2 upregulation/expression (PKM2 expression)	TNFα-induced and NF-κB-dependent IκBα promoter activation (NF-κB)	PTBP1 protein expression (PTBP1)	EGF-induced IKKβ activation (IKKβ)
Cc1ccc(NCCCc2ccccc2)c(N)c1 [NF-κB activation inhibitor II]	largely abrogated	successfully blocked	not affected	
COc1ccc2c(c1)CC[C@@H]1[C@@H]2CC[C@]2(C)[C@@H](NCCCCCCN3C(=O)C=CC3=O)CC[C@@H]12 [U73122]	abrogated			abrogated
